The test relates to IL1A. Kind of test: Gene expression custom microarray, human skin fibroblasts (Example 1): IL1A. It is filed as cell-based. The following applies: 24 hr; for fold induction at 10 µM: Skin fibroblast, read-out: IL1A↓ gene expression, fold increase or decrease vs untreated cells. The source says: Cell cultures: A human skin fibroblast cell culture (or cultures) was obtained through the Coriell Cell Repository from the National Institute on Aging Cell Repository (Camden, N.J.), or Promocell GmbH (Heidelberg, Germany). The initial culture was selected from the following cell lines: AG13066, AG11557, AG11796 or GM03651E. The cell lines were derived from donors as follows:
Experimental phase: When the appropriate quantity of cells had been grown, they were detached as described above, but at the final step were seeded into each well of one or more 6 well dishes. Each well received 2 ml of the cell suspension so they were seeded equally. The dishes were returned to the incubator until 85-95% confluency was reached.
It is at this stage that all wells were rinsed in PBS after aspirating the growth media. The compound(s) to be tested were previously mixed into a suitable solvent (e.g., DMSO or ethanol) that can be diluted to the desired concentration of test compound (10 μl) in the culture wells without exceeding maximum solvent concentrations and adversely effecting cell viability, and mixed with basal media. NOTE: Standard maximum levels of solvent are 0.1% for DMSO and 0.5% for ETOH. The concentration of each test compound is found in Tables 1 & 2.
Every 2 wells on the 6 well plate served as a biological replicate for the purposes of RNA isolation and genetic expression evaluations making each 6 well dish an n=3 for the test compound(s) contained in the media. Negative control plates (no test compound(s) and only basal media) were also generated. The plates were returned to the incubator for 24 hrs.
At the end of the 24 hr time period, the plates were removed from the incubator, the test media aspirated, and the cells rinsed with PBS. RNA isolation is performed using the BioRad Aurum Total RNA Mini Kit (Hercules, Calif.) per manufacturer's protocol; which is described, in brief, below: • Add 350 μl of lysis buffer to each well. Pipet multiple times to ensure thorough lysis. Add lysed cells to the collection tube. • Add 350 μl of 70% ETOH to the collection tube and mix thoroughly. • Pipet the generated lysate onto the spin column placed in a new 2 ml tube. Centrifuge for 30 sec between 8,000 and 10,000 g. • Place the spin column containing the now bound RNA, in a new 2 ml tube. Add 700 μl of low stringency wash solution to the spin column. Centrifuge for 30 sec between 8,000 and 10,000 g. Discard the flow through and replace spin column. • Add 80 μl of DNase I dilution to the spin column and incubate at room temperature for 15 minutes. • Add 700 μl of high stringency wash solution to the column and centrifuge for 30 sec between 8,000 and 10,000 g. Discard flow through. • Add 700 μl of low stringency wash solution to the column and centrifuge for 60 sec between 8,000 and 10,000 g. Discard flow through. • Centrifuge for 2 minutes to remove residual wash solution. • Transfer spin column to new 1.5 ml collection tube and add 80 μl of elution solution to the column. Allow 1 minute for saturation of the membrane and then centrifuge for 2 minutes to complete the RNA elution. • Quantify the quantity of RNA and store at −20 C° until use (no more than 1 month)
The genes tested were: • Cannabinoid receptor 1 (CB1(CNR1)) • Cannabinoid receptor 2 (CB2 (CNR2)) • Fatty acid amide hydrolase (FAAH) • Monoacylglycerol lipase (MGLL, i.e., MAGL) • Peroxisome proliferator-activated receptor gamma (PPARG) • Nuclear factor kappa-light-chain-enhancer of activated B cells (NFκβ) • Interleukin 1 Alpha (IL1alpha) • Cyclooxygenase 1 (PTGS1, i.e., COX1) • Transient receptor potential cation channel subfamily A member 1 (TRPA1) • Transient receptor potential cation channel subfamily V member 1 (TRPV1) • Transient receptor potential cation channel subfamily M member 8 (TRPM8) • Hemoglobin Subunit Beta (HBB) REFERENCE GENE • Ribosomal Protein L13a (RPL13A) REFERENCE GENE […]

In the case of `C=C(C)[C@@H]1CCC(C)=C[C@H]1c1c(O)cc(CCCCC)cc1O` [CBD, cannabidiol, reference compound], the fold induction at 10 µM amounted to 20.5.
With `CC(C)[C@]12O[C@H]1[C@@H]1O[C@]13[C@]1(O[C@H]1C[C@H]1C4=C(CC[C@@]13C)C(=O)OC4)[C@@H]2O` [Triptolide], the fold induction at 10 µM worked out at 15.5.
Take `CCCCCCCCCCCCCCCC(=O)NCCO` [N-palmitoylethanolamide]: for the setting “10 uM”, the “IL1A↓ gene expression, fold increase or decrease vs untreated cells” value is reported as −1.2 fold.

The values above are taken from patent publication US20220202739A1, “ENDOCANNABINOID MIMETIC AND ANTI-INFLAMMATORY COMPOUND CONTAINING COMPOSITIONS, METHODS OF PREPARATION AND USES THEREOF” (priority 2019, published 2022).
